Marks after values point to notes of the source that are not given here.
Assays:
intestines = test: Example 3: ratio of villus height to crypt depth in the intestines (FIG. 3); assay type: in vivo, pigs; conditions: intestinal samples; diets for 14 days after weaning and 12 h transport; compared to NA
Method: Error bars represent ±1 standard error of the mean (SEM). Letters (x, y) indicate statistical tendencies (0.05<P≤0.10) between dietary treatments. In a similar experiment to the one above in Example 2, an L-glutamine-containing diet was evaluated for pigs to determine how it affected their general health and productivity. The experiment was conducted under commercial production conditions using a total of 480 mixed-sex (50% male and 50% female) pigs. Pigs were weaned and then transported for 12 hours to the nursery facility. Once pigs arrived at the nursery facility they were provided 1 of 3 separate diets, those being no antibiotics or L-glutamine (NA); 0.20% L-glutamine (GLN); or dietary antibiotics (A) for 14 days. After the 14-day period all pigs were provided the same antibiotic-free diets until they reached market weight. Blood and intestinal samples were collected from pigs to determine whole body immune function and intestinal integrity. […] In particular, intestinal samples from pigs were analyzed to determine the ratio of villus height to crypt depth in the intestines. Villus height to crypt depth ratio is a morphological measure of intestinal health and a greater ratio indicates an improvement in intestinal health. […] Improved intestinal health is essential for nutrient absorption and preventing pathogens from entering the body. […]

[1] = Example 2: nursery growth performance (d 0 to d 34 post-weaning) in a production environment; assay type: in vivo, pigs
Description: (§1) In a larger example, three groups of post-weaning and post-transport pigs (each group n=160, total of 480 pigs, 50% male and 50% female) were fed on different diets to assess the effects of L-glutamine as a supplement in the diet in a production environment. The diets consisted primarily of corn and soybean meal as in Example 1. One group (Group A) was fed a standard swine feed in two phases containing a standard antibiotic supplement (400 g chlortetracycline and 35 g tiamulin/ton of feed), another group (GLN) was fed a standard swine feed in two phases containing 0.20% L-glutamine, and a third group (NA) was given a standard swine diet in two phases containing no antibiotics or immunomodulators. Otherwise, the diets for groups A, GLN, and NA were the same. The disparate diets were given to the different groups for 14 days post-weaning and transport, following which all three groups were on a common diet for the remainder of the trial. This experiment was conducted from Jul. 28, 2016 to Sep. 21, 2017. The pigs were followed all the way through market (i.e., day 125 post-weaning, being about 6 months of age).

enteric disease = test: Example 2: percentage of pigs treated for enteric disease (FIG. 1); assay type: in vivo; conditions: 0.20% L-glutamine diet; Period 1 (d 0-14) and Period 2 (d 15-34) post-weaning and transport
Description: Period 1 is 0-14 days post-weaning and transport and Period 2 is 15-34 days post-weaning and transport. Error bars represent ±1 standard error of the mean (SEM). Letters (a, b) indicate statistically significant differences (P≤0.05) between dietary treatments and symbols (*, #) indicate statistically significant differences (P≤0.05) between periods. In a larger example, three groups of post-weaning and post-transport pigs (each group n=160, total of 480 pigs, 50% male and 50% female) were fed on different diets to assess the effects of L-glutamine as a supplement in the diet in a production environment. The diets consisted primarily of corn and soybean meal as in Example 1. One group (Group A) was fed a standard swine feed in two phases containing a standard antibiotic supplement (400 g chlortetracycline and 35 g tiamulin/ton of feed), another group (GLN) was fed a standard swine feed in two phases containing 0.20% L-glutamine, and a third group (NA) was given a standard swine diet in two phases containing no antibiotics or immunomodulators. Otherwise, the diets for groups A, GLN, and NA were the same. […] Data were analyzed on a per pen basis and the assumptions of normality of error, homogeneity of variance, and linearity were confirmed post-hoc.

[2] = tested on: tumor necrosis factor alpha (TNFα); test: Example 3: tumor necrosis factor alpha in pigs' blood (FIG. 2); assay type: in vivo; conditions: blood samples; diets for 14 days after weaning and 12 h transport; vs no antibiotics
Method: Error bars represent ±1 standard error of the mean (SEM). Letters (a, b) indicate statistically significant differences (P≤0.05) between dietary treatments. In a similar experiment to the one above in Example 2, an L-glutamine-containing diet was evaluated for pigs to determine how it affected their general health and productivity. The experiment was conducted under commercial production conditions using a total of 480 mixed-sex (50% male and 50% female) pigs. Pigs were weaned and then transported for 12 hours to the nursery facility. Once pigs arrived at the nursery facility they were provided 1 of 3 separate diets, those being no antibiotics or L-glutamine (NA); 0.20% L-glutamine (GLN); or dietary antibiotics (A) for 14 days. After the 14-day period all pigs were provided the same antibiotic-free diets until they reached market weight. Blood and intestinal samples were collected from pigs to determine whole body immune function and intestinal integrity. […] Specifically, blood samples from the pigs were tested for tumor necrosis factor alpha (TNFα), a pro-inflammatory cytokine, elevated levels of which can be indicative of systemic inflammation and immune system activation which can be detrimental to the health and productivity of pigs. A reduction in circulating TNFα would be indicative of a decreased whole body inflammatory response in pigs. […]

[3] = Example 2: grow-finish growth performance (d 0 to d 125) until market; assay type: in vivo, pigs
Description: as §1, with “age).[…]” for “age).”

[4] = Example 1: small-scale simulated transport of post-weaning pigs, 14-day diets; assay type: in vivo; conditions: 0.20% L-glutamine diet, 14 days post-weaning and simulated transport
Description: In a small-scale example, three groups of post-weaning pigs were subjected to a simulated transport experience immediately post-weaning and then provided different diets to assess the effects of L-glutamine as a supplement in the diet. The details of the procedure are given in full in “Evaluating the behavior, growth performance, immune parameters, and intestinal morphology of weaned piglets after simulated transport and heat stress when antibiotics are eliminated from the diet or replaced with L-glutamine” by Johnson, J. S. and Lay Jr., D. C. in the Journal of Animal Science (2017, 95, 91-102), which is incorporated herein in its entirety by reference. In this experiment, the piglets were fed on disparate feeds for 14 days post-weaning and simulated transport, and then euthanized by CO2 exposure and exsanguination.

[5] = d 0 to 14 post-weaning, diet treatment period
[6] = d 0 to 34 post-weaning, overall nursery
[7] = d 15 to 34 post-weaning, common diet period

SMILES: NC(=O)CC[C@H](N)C(=O)O [GLN, L-glutamine]
- villus height to crypt depth ratio (intestines): greater
- overall nursery phase performance ([1]; d 0-34 post-weaning, vs antibiotic pigs): performed similarly to the antibiotic pigs
- Average daily feed intake [1, 5]: 272.06^a g
- Average daily gain [1, 5]: 210.78^a g
- Feed efficiency, gain: feed [1, 5]: 0.79^ab
- Average daily feed intake [1, 6]: 517.08^xy g
- Average daily gain [1, 6]: 352.73^ab g
- Feed efficiency, gain: feed [1, 6]: 0.71^ab
- d 14 body weight ([1]; d 14 post-weaning): 8.50^a kg
- Average daily feed intake [1, 7]: 680.43 g
- Average daily gain [1, 7]: 447.36 g
- Feed efficiency, gain: feed [1, 7]: 0.66
- d 34 body weight ([1]; d 34 post-weaning): 17.49^ab kg
- feed intake, average daily gain, and final body weight compared to the non-antibiotic group ([1]; diet treatment period, d 0-14 post-weaning): significantly higher
- requirement for injectable therapeutic antibiotics for enteric disease (enteric disease): the same requirement for injectable therapeutic antibiotics for enteric disease as the piglets fed the antibiotics
- circulating TNFα [2]: reduced at a similar level
- growth performance of piglets through the end of the nursery phase ([3]; body weight at start of grow-finish phase vs no antibiotic pigs): effective in improving the growth performance of piglets through the end of the nursery phase
- Feed efficiency, gain: feed ([3]; d 0 to 62 of grow-finish phase, common diet): 0.46
- Feed efficiency, gain: feed ([3]; d 0 to 125 of grow-finish phase): 0.38
- d 62 body weight ([3]; d 62 of grow-finish phase): 65.02 kg
- Feed efficiency, gain: feed ([3]; d 62 to 125 of grow-finish phase, common diet): 0.31
- Final body weight ([3]; d 125, market): 121.73 kg
- Initial body weight ([3]; start of grow-finish phase (d 0), diets given 14 days post-weaning, then common diet): 17.49^a kg
- effectiveness in other parameters ([4]; vs antibiotics): approximately as effective as the antibiotics
- productivity ([4]; vs non-antibiotic and antibiotic group): better productivity compared to the non-antibiotic and antibiotic group

— patent US20190208800A1, “L-GLUTAMINE IN SWINE DIETS” (The United States of America, as represented by the …, priority 2018, published 2019)
